According to US20260098061A1, “EPHA2-BINDING PENDING PEPTIDE AND COMPOSITION COMPRISING SAME” (PeptiDream Inc., priority 2022, published 2026):
Numbered stars: 1 amine (or outer) side, 2 acyl side, 3 side chain; on linkers, the order of the positions; unused ones are H or OH. Bridge positions count the residues as written; N and C are the ends. Square brackets hold non-standard residues; d marks the D form. Side chains are listed from the residue outwards. Peptide text beside a SMILES is read from it. * marks the point of attachment. NH(1-deoxy-D-glucityl) = OC[C@@H](O)[C@@H](O)[C@H](O)[C@@H](O)CN*; X1 = CC(C)C[C@H](CC(=O)[C@H](CC(N)=O)N[*:1])C(=O)[*:2]; Trp(1-Me,7-Cl) = Cn1cc(C[C@H](N)C(=O)O)c2cccc(Cl)c21; dPhe(3-CONH2) = NC(=O)c1cccc(C[C@@H](N)C(=O)O)c1; Piperazinyl(4-CH2COOH) = O=C(O)CN1CCN(*)CC1; Trp(1-Me) = Cn1cc(C[C@H](N)C(=O)O)c2ccccc21; NMe3Pal = CN[C@@H](Cc1cccnc1)C(=O)O; NMeF = CN[C@@H](Cc1ccccc1)C(=O)O; Gly(cBu) = N[C@H](C(=O)O)C1CCC1; NMeE = CN[C@@H](CCC(=O)O)C(=O)O; Aad = N[C@@H](CCCC(=O)O)C(=O)O; CO = O=C([*:1])[*:2]; βAla = NCCC(=O)O

target: T1, Recombinant Human EphA2 Fc Protein (Homo sapiens, UniProt P29317); experiment: SPR interaction analysis (Biacore T200), kinetics of peptides against EphA2; assay type: binding; conditions: Recombinant Human EphA2 Fc Protein captured by Human Antibody Capture kit; single-cycle kinetics; 25° C.; HBS-P+ buffer with 1% DMSO
T1 construct: purchased Elabscience
Summary of the method: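 KD derived from ka and kd, fitted on baseline-subtracted sensorgrams from single-cycle kinetics of five peptide dilutions. Running buffer: HBS-P+ (pH 7.4) plus 1% DMSO, 25° C, Biacore T200. Recombinant human EphA2-Fc held on an antibody capture surface.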

Row | SMILES | Kd
1 | C[C@@H](O)[C@@H]1NC(=O)[C@H](Cc2cn(C)c3ccccc23)NC(=O)[C@H](CCC(=O)NC[C@H](O)[C@@H](O)[C@H](O)[C@H](O)CO)NC(=O)[C@H](Cc2cn(C)c3c(Cl)cccc23)NC(=O)[C@H](CCC(=O)O)N(C)C(=O)[C@H](CCCC(N)=O)NC(=O)[C@H](C2CCC2)NC(=O)[C@H](CC(N)=O)NC(=O)[C@H](Cc2cccnc2)N(C)C(=O)[C@@H](Cc2cccc(C(N)=O)c2)NC(=O)CSC[C@@H](C(N)=O)NC(=O)[C@H](CCCC(N)=O)NC1=O [PDC_EphA2-00019439, df3CON-Me3Py-N-Cbg-Hgn-MeE-W1Me7Cl-Qglucamine-W1Me-T-Hgn-C-NH2] ({CH2CO}-[dPhe(3-CONH2)][NMe3Pal]N[Gly(cBu)][Aad](NH2)[NMeE][Trp(1-Me,7-Cl)]E(NH(1-deoxy-D-glucityl))[Trp(1-Me)]T[Aad](NH2)C-NH2; thioether N-12) | < 1 nM
2 | C[C@@H](O)[C@@H]1NC(=O)[C@H](Cc2cn(C)c3ccccc23)NC(=O)[C@H](CCCCNC(=O)N2CCN(CC(=O)O)CC2)NC(=O)[C@H](Cc2cn(C)c3c(Cl)cccc23)NC(=O)[C@H](Cc2cccnc2)N(C)C(=O)[C@H](CCCC(N)=O)NC(=O)[C@H](C2CCC2)NC(=O)[C@H](CC(N)=O)NC(=O)[C@H](Cc2ccccc2)N(C)C(=O)[C@@H](Cc2cccc(C(N)=O)c2)NC(=O)CSC[C@@H](C(N)=O)NC(=O)[C@H](CCCC(N)=O)NC1=O [PDC_EphA2-00019436, df3CON-MeF-N-Cbg-Hgn-Me3Py-W1Me7Cl-KCOpipzaa-W1Me-T-Hgn-C-NH2] ({CH2CO}-[dPhe(3-CONH2)][NMeF]N[Gly(cBu)][Aad](NH2)[NMe3Pal][Trp(1-Me,7-Cl)]K([CO-Piperazinyl(4-CH2COOH)])[Trp(1-Me)]T[Aad](NH2)C-NH2; thioether N-12) | < 1 nM
3 | CC(=O)NCCCC[C@@H](NC(=O)CCNC(=O)[C@@H]1CSCC(=O)N[C@H](C)C(=O)N(C)[C@@H](Cc2cccnc2)C(=O)N[C@@H](CC(N)=O)C(=O)C[C@@H](CC(C)C)C(=O)N[C@@H](CCCC(=O)O)C(=O)N(C)[C@@H](Cc2ccccc2)C(=O)N[C@@H](Cc2cn(C)c3ccccc23)C(=O)N[C@@H](C(C)C)C(=O)N[C@@H](Cc2cn(C)c3ccccc23)C(=O)N[C@@H]([C@@H](C)O)C(=O)N[C@@H](CCC(=O)O)C(=O)N1)C(N)=O [PDC_EphA2-00008083, da-Me3Py-N-L-Hgl-MeF-W1Me-V-W1Me-T-E-C-bA-dkAc-NH2] ({CH2CO}-[dA][NMe3Pal][X1][Aad][NMeF][Trp(1-Me)]V[Trp(1-Me)]TEC[βAla][dK](Ac)-NH2; thioether N-11) | < 1 nM

Second part, the compound after the results:

Row | Kd | SMILES
4 | < 1 nM | C[C@H]1NC(=O)CSC[C@@H](C(N)=O)NC(=O)[C@H](CCCC(N)=O)NC(=O)[C@H]([C@@H](C)O)NC(=O)[C@H](Cc2cn(C)c3ccccc23)NC(=O)[C@H](CCC(=O)NC[C@H](O)[C@@H](O)[C@H](O)[C@H](O)CO)NC(=O)[C@H](Cc2cn(C)c3ccccc23)NC(=O)[C@H](Cc2ccccc2)N(C)C(=O)[C@H](CCCC(N)=O)NC(=O)[C@H](C2CCC2)NC(=O)[C@H](CC(N)=O)NC(=O)[C@H](Cc2ccccc2)N(C)C1=O [PDC_EphA2-00013917, da-MeF-N-Cbg-Hgn-MeF-W1Me-QGlucamine-W1Me-T-Hgn-C-NH2] ({CH2CO}-[dA][NMeF]N[Gly(cBu)][Aad](NH2)[NMeF][Trp(1-Me)]E(NH(1-deoxy-D-glucityl))[Trp(1-Me)]T[Aad](NH2)C-NH2; thioether N-12)
5 | < 1 nM | CC(C)C[C@@H]1NC(=O)[C@H](CC(N)=O)NC(=O)[C@H](Cc2cccnc2)N(C)C(=O)[C@@H](C)NC(=O)CSC[C@@H](C(N)=O)NC(=O)[C@H](CCCC(N)=O)NC(=O)[C@H]([C@@H](C)O)NC(=O)[C@H](Cc2cn(C)c3ccccc23)NC(=O)[C@H](CCCCNC(=O)N2CCN(CC(=O)O)CC2)NC(=O)[C@H](Cc2cn(C)c3ccccc23)NC(=O)[C@H](CCC(=O)O)N(C)C(=O)[C@H](CCCC(N)=O)NC1=O [PDC_EphA2-00010008, da-Me3Py-N-L-Hgn-MeE-W1Me-KCOpipzaa-W1Me-T-Hgn-C-NH2] ({CH2CO}-[dA][NMe3Pal]NL[Aad](NH2)[NMeE][Trp(1-Me)]K([CO-Piperazinyl(4-CH2COOH)])[Trp(1-Me)]T[Aad](NH2)C-NH2; thioether N-12)
